How the values were obtained:
mice = test: Locomotor activity test; assay type: in vivo; conditions: methamphetamine administered to mice every day (FIG. 1: 2 mg/kg, s.c., six days), hydrochloride
Procedure: In the test, ICR male mice (Japan SLC, Hamamatsu) that were 8-week old when the test was started. The mice were bred under conditions of light and dark cycle of 12 hours (light up: A.M 8:00), room temperature 23±1° C., and humidity 50±5%. The mice were freely fed with food (CE2: CLEA Japan, Tokyo) and water. Note here that this research program was approved by Animal Research Committee, Nagoya University School of Medicine and carried out in accordance with Guideline of Animal Research of Nagoya University School of Medicine and Principles of Laboratory Animal Care (National Institutes of Health Publication 85-23, 1985).
In the test, an acrylic cage (28 cm in length, 17 cm in width and 13 cm in height) that is the same kind as the home case was used. On the floor, a small amount of breeding chip was placed. […]
On days 1 to 3, mice were placed in a measurement cage for two hours so that the mice became accustomed to the measurement environment. […] Right after the administration, the total locomotor activity for two hours was measured.
Each of the antisense nucleotide of Gene 1 and 2 was infused into the mice cerebral ventricle continuously by using a mini osmotic pump and methamphetamine was administered to the animals every day. The locomotor activity on the first, third and fifth days was measured. […] The locomotor activity was measured for two hours. […]

[1] = test system: mouse (C57black6) nucleus accumbens; test: cDNA subtraction of nucleus accumbens mRNA after methamphetamine; assay type: in vivo; conditions: methamphetamine 10 consecutive days, five genes incl. Gene 1, Gene 2, Gene 3 (Piccolo)
Procedure: By using RNeasy mini kit (QIAGEN), mRNA was prepared by the following procedure. Mouse brain was taken out and the tissue was divided so as to be 30 mg or less. The brain tissue was dissolved in a solution containing a protein denaturizing agent and centrifuged with a spin column. Ethanol precipitation was repeated. Finally, mRNA was purified with silica gel.
The cDNA subtraction was carried out by using CLONTECH PCR-Select™ cDNA Subtraction Kit (CLONTECH) according to the attached instruction manual.
Methamphetamine-administered mice show hyperactivity, and when methamphetamine is administered to mice every day, the degree of hyperactivity is increased. This can be thought to be a mental disorder accompanying drug dependence (FIG. 1). Then, mRNA was taken out from the mouse (C57black6) nucleus accumbens to which methamphetamine had been administered for 10 consecutive days. Based on this, cDNA subtraction (CLONTECH) was carried out. In mice to which methamphetamine had been administered, a gene in which mRNA expression amount increased by 20 times or more than that of a control group was searched. As a result, five genes satisfy the requirement (FIG. 2). In the genes, three genes except for CREB3 and Odz4 were used for the later research. For convenience of description, each gene is referred to as Gene 1, Gene 2 and Gene 3 (Piccolo).

Genes 1 to 3 mRNA = test: Expression of Genes 1 to 3 mRNA by RT-PCR / real time RT-PCR after methamphetamine; assay type: in vivo, mice
Excerpt: Furthermore, when the increase of the expression amount was examined by a real time RT-PCR method, the expression amount was increased in the methamphetamine-administered cortex of frontal lobe, nucleus accumbens and striatum, respectively (FIGS. 10 to 12).

[2] = biological target: T1, human dopamine transporter (Homo sapiens, UniProt Q01959); test: Fluorescence immunostaining of intracellular movement of dopamine transporter in PC12 cell; conditions: before and after methamphetamine was acted
T1 construct: expressed in transfected cells; host or cells: PC12 cells
Procedure: In the PC12 cell, the human dopamine transporter was forcedly expressed and fluorescence immunostaining of a human dopamine transporter was carried out before and after methamphetamine was acted.

Gene 1 mRNA = Gene 1 mRNA expression in brain tissue by RT-PCR; assay type: in vivo, mice; conditions: for Gene 1 expression amount in the nucleus accumbens induced by methamphetamine: methamphetamine 2 mg/kg s.c. six days, R(+)-SCH23390 0.1 mg/kg i.p. or raclopride 2 mg/kg i.p. 30 minutes before
Procedure: Antisense nucleotide of Gene 1 was continuously infused into the mouse cerebral ventricle by using a mini osmotic pump and methamphetamine was administered to the animals every day.
A mouse was fed with 6% ethanol or water (control) for 12 days, and then was subjected to decapitation. The amount of Gene 1 mRNA in the nucleus accumbens was measured by a RT-PCR method.

T1 sequence (Q01959 whole entry): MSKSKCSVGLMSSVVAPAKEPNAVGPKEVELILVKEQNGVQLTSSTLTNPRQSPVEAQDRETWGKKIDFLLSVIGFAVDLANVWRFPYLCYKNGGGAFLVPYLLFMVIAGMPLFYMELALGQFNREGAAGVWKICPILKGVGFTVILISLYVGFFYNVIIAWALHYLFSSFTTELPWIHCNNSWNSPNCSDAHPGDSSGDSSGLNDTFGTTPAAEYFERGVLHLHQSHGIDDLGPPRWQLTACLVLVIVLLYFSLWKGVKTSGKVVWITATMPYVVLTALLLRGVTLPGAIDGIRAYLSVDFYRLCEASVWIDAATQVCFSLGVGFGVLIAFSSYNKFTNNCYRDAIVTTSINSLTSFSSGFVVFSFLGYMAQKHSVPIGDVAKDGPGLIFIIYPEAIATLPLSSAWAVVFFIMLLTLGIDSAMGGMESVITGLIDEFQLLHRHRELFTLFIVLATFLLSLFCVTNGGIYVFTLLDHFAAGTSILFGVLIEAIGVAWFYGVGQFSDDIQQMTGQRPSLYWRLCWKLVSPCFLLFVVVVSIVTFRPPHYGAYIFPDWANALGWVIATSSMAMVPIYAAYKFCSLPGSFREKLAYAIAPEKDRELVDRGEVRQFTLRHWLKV

CN[C@@H](C)Cc1ccccc1.Cl [methamphetamine, methamphetamine hydrochloride]
locomotor activity (mice): enhanced | locomotor activity (mice; listed as Methamphetamine): hyperactivity | mRNA expression amount increase over control group [1]: ≥ 20 times | mRNA of Genes 1 to 3 (RT-PCR) (Genes 1 to 3 mRNA; methamphetamine administered group compared with control group, all primer combinations): increase of mRNA was observed | expression amount of Genes 1 to 3 (real time RT-PCR) (Genes 1 to 3 mRNA; methamphetamine-administered cortex of frontal lobe, nucleus accumbens and striatum): increased | intracellular movement of the human dopamine transporter [2]: intracellular movement of the human dopamine transporter was observed

c1ccc(C2(N3CCCCC3)CCCCC2)cc1 [phencyclidine]
Gene 1 mRNA amount in the cortex of frontal lobe (Gene 1 mRNA; phencyclidine 10 mg/kg s.c. 14 days): no significant correlation

CCO [ethanol]
Gene 1 mRNA amount in the nucleus accumbens (Gene 1 mRNA; 6% ethanol fed for 12 days vs water): no significant correlation

CCN1CCC[C@H]1CNC(=O)c1c(O)c(Cl)cc(Cl)c1OC [raclopride]
Gene 1 expression amount in the nucleus accumbens induced by methamphetamine (Gene 1 mRNA): significant difference was observed

CN1CCCC1c1cccnc1 (centres unmarked) [nicotine]
Gene 1 mRNA amount in the nucleus accumbens (Gene 1 mRNA; nicotine 0.05-1.0 mg/kg s.c. 12 days): correlation between the administration of nicotine and the expression amount of Gene 1 was observed

CN1CCc2cc(Cl)c(O)cc2[C@@H](c2ccccc2)C1 [R(+)-SCH23390]
Gene 1 expression amount in the nucleus accumbens induced by methamphetamine (Gene 1 mRNA): significant difference was observed

Source: patent US7776538B2, “Method for diagnosing methamphetamine dependence” (National University Corporation Nagoya University, priority 2005, dated 2010)
